Laboratory results reported in patent US20240284907A1, “NOVEL DERIVATIVES OF NON-CODED AMINO ACIDS AND THEIR USE AS HERBICIDES” (FortePhest LTD., priority 2021, published 2024).

How the values were obtained:
[1] = tested on: Seeds of Lettuce R. (Super-Jericho); test: Filter paper bioassay with lettuce seeds: germination and early plant development, Minimal Effective Concentration (MEC); assay type: in vivo; conditions: lettuce seeds on filter paper, 0 to 1 mmol/l, visually assessed after 6 days
Summary of the method: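 Visual scoring on day 6 of radicle and shoot growth gives the MEC, the lowest dose deviating from control (no germination or malformation). Seeds (lettuce Super-Jericho, 10 per plate) sat on filter paper with 0–1 mmol/l aqueous compound, 48 h dark then 4 days 6/18 dark/light, in at least two repeats.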

[2] = tested on: Romaine lettuce (Lactuca sativa L.) plants; test: Post-emergence herbicidal activity on potted Romaine lettuce plants (soil or foliar application); assay type: in vivo; conditions: lettuce at 2 to 3 leaves, two weeks after treatment
Summary of the method: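 Potted lettuce at the 2-3 leaf stage received compound in 0.1% aqueous Silwet, up to 0.0001%, applied to soil (1 ml/pot) or sprayed on foliage (0.1 ml/pot), 20 plants per concentration. Visual scoring and aboveground wet weight after two weeks; growth inhibition from median weights versus control.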

Amaranth = test: Herbicidal effect on potted weeds, plant development score; assay type: in vivo; conditions: soil application 1 mg/pot, scale 0 (dead plants) to 5 (healthy, as Control)
Experimental: (§1) Weed seeds were sawn in 0.3-liter pots, containing medium-heavy clay-loam soil from organic fields (55% clay, 23% silt, 20% sand, 2% organic matter, pH 7.1). The experiment was conducted in a completely randomized design. Each treatment was replicated 3 times (3 pots). Each compound was typically tested on crops (Corn, Wheat, Soy, Cotton, Oat, Chickpea) and weeds (Amaranth, Chenopodium, Lentils, Sinapis, Silybum).
(§2) The herbicides were applied at dose from 0 (control) to 5 mg/pot. The treatment was performed at the day of sawn (pre-emergence treatment). Then the pots were transferred to a mesh house 24 hours after herbicide application and were sprinkler irrigated to field capacity of the soil. Alternatively, the herbicides were applied on grown plants at stage 2-3 true leaves (post-emergence treatment).
(§3) The plants were grown in the mesh house during the entire experiment. Plant development at 6, 12, 19, 26 and 32 days after application (DAA) were evaluated on a scale of 0 to 5, in which 0 represents dead plants and 5 represents healthy plants similar or not different from Control. In the context of the invention, the herbicidal effect was expressed as a score calculated as an average of assessments of plants vigor, height, and leaf color.

Chenopodium = test: as above; assay type: in vivo; conditions: soil application 1 mg/pot, scale 0 (dead plants) to 5 (healthy, as Control)
Experimental: as §1, §2, §3

Lentils = test: as above; assay type: in vivo; conditions: soil application 1 mg/pot, scale 0 (dead plants) to 5 (healthy, as Control)
Experimental: as §1, §2, §3

Silybum = test: as above; assay type: in vivo; conditions: soil application 1 mg/pot, scale 0 (dead plants) to 5 (healthy, as Control)
Experimental: as §1, §2, §3

Sinapis = test: as above; assay type: in vivo; conditions: soil application 1 mg/pot, scale 0 (dead plants) to 5 (healthy, as Control)
Experimental: as §1, §2, §3

[3] = tested on: Romaine lettuce (Lactuca sativa L.) plants; test: Comparison of NAA and DNAA: growth inhibition of potted Romaine lettuce plants; assay type: in vivo; conditions: two weeks after treatment
Experimental: The tests were performed on Romaine lettuce (Lactuca sativa L.) plants at the stage 2 to 3 leaves. The plants were grown in mini-pots packed with soil, dimensions 2×2×5 cm, one plant per mini-pot. Test compounds were dissolved in 0.1% aqueous solution water solution of Silwet adjuvant. The test material where applied in rate 0 (Control), 0.01, 0.05, and 0.5 mg/pot. The test compounds were applied on soil or foliar with airbrush (0.1 ml per pot). Each concentration was tested on 20 plants. Two weeks after the treatment the herbicidal effects of the respective test material were visually evaluated (aboveground part and roots. Then the aboveground part of the plants was neatly cut and weighed (wet weight) to assess the growth inhibition caused by the test compound. The growth inhibition (GI) was calculated as following: […]
Where Mt and Mc are median wet weight of treated and control plants, respectively.

[4] = tested on: Seeds of Lettuce R. (Super-Jericho); test: Filter paper bioassay with lettuce seeds: germination, Fully Effective Concentration (FEC); assay type: in vivo; conditions: lowest concentration mostly preventing lettuce seed germination, assessed after 6 days
Summary of the method: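 Ten lettuce seeds per Petri dish on filter paper with 2.0 ml aqueous test solution, 0 to 1 mmol/l, kept 48 hours dark then 4 days at 6/18 dark/light. Radicle and shoot assessed visually at day 6; FEC is the lowest concentration mostly preventing germination.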

[5] = foliar application, 0.05 mg/pot
[6] = foliar application, 0.50 mg/pot

melting point | Molecule | Score (activity score of Minimal Effective Concentration, MEC) [1] | Score (test material causing more than 85% of Growth Inhibition or irreversible plant damage) ([2]; foliar application) | Score (test material causing more than 85% of Growth Inhibition or irreversible plant damage) ([2]; soil application) | Average Herbicidal Effect, Amaranth (Amaranth; post-emergence) | Average Herbicidal Effect, Amaranth (Amaranth; pre-emergence) | Average Herbicidal Effect, Chenopodium (Chenopodium; post-emergence) | Average Herbicidal Effect, Chenopodium (Chenopodium; pre-emergence) | Average Herbicidal Effect, Lentils (Lentils; post-emergence) | Average Herbicidal Effect, Lentils (Lentils; pre-emergence) | Average Herbicidal Effect, Silybum (Silybum; post-emergence) | Average Herbicidal Effect, Silybum (Silybum; pre-emergence) | Average Herbicidal Effect, Sinapis (Sinapis; post-emergence) | Average Herbicidal Effect, Sinapis (Sinapis; pre-emergence) | Herbicidal effect, growth application (%) [3, 5] | Herbicidal effect, growth application (%) [3, 6] | Herbicidal effect, growth application (%) ([3]; soil application, 0.01 mg/pot) | Herbicidal effect, growth application (%) ([3]; soil application, 0.05 mg/pot) | Herbicidal effect, growth application (%) ([3]; soil application, 0.50 mg/pot) | FEC (Fully Effective Concentration) [4]
 | 2-(6-bromopyridin-2-yl)-2,2-difluoroacetic acid [compound 6617] | Strong (0.01 mM) | moderate (0.5) | strong (0.01 to 0.05) | 2.0 | 4.5 | 0.5 | 4.5 | 1.0 | 2.0 | 4.5 | 5.0 | 2.0 | 3.5 | 88% | 100% | 52% | 92% | 91% | 
87 °C | CC(=O)NCCc1nc(Cl)sc1Cl [ID 5650, N-[2-(2,5-dichloro-1,3-thiazol-4-yl)ethyl]acetamide] |  |  |  |  |  |  |  |  |  |  |  |  |  |  |  |  |  |  | 
 | O=C(O)C(F)(F)c1nc(Cl)sc1Cl [compound 5667, 2-(2,5-dichloro-1,3-thiazol-4-yl)-2,2-difluoroacetic acid] | very strong | strong (0.01 to 0.05) | strong (0.01 to 0.05) | 3.0 | 2.0 | 2.4 | 0.0 | 0.0 | 0.0 | 0.0 | 3.5 | 0.0 | 2.0 | 92% | 100% | 90% | 91% | 100% | 
 | (2,5-dichlorothiophen-3-yl)(difluoro)acetic acid [compound 5640] | Strong (0.01 mM) | strong (0.01 to 0.05) | strong (0.01 to 0.05) | 2.0 | 4.0 |  | 5.0 | 2.1 | 0.0 | 2.0 | 2.5 | 0.0 |  | 100% | 100% | 5% | 100% | 100% | 0.100 mM
